Assay results published in PubChem BioAssay (NCI).
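96-well plates; 48 h exposure; 5 concentrations. Endpoints by linear interpolation between flanking doses. Not reached: highest tested concentration assigned. TGI marks complete inhibition of growth.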

What was measured:
Assay in all cases: DTP human tumour cell line panel, 48 h
UO-31 renal = tested on: UO-31 renal
TK-10 renal = tested on: TK-10 renal
SK-OV-3 ovarian = tested on: SK-OV-3 ovarian
HOP-62 NSCLC = tested on: HOP-62 NSCLC
NCI-H226 lung = tested on: NCI-H226 lung
RXF-631 renal = tested on: RXF-631 renal
SF-268 CNS = tested on: SF-268 CNS
SN12C renal = tested on: SN12C renal
XF 498 CNS = tested on: XF 498 CNS
SW-620 colon = tested on: SW-620 colon
OVCAR-3 ovarian = tested on: OVCAR-3 ovarian
SK-MEL-5 melanoma = tested on: SK-MEL-5 melanoma
KM20L2 colon = tested on: KM20L2 colon
U251 CNS = tested on: U251 CNS
LXFL 529 NSCLC = tested on: LXFL 529 NSCLC
M14 melanoma = tested on: M14 melanoma
DLD-1 colon = tested on: DLD-1 colon
UACC-62 melanoma = tested on: UACC-62 melanoma
HT29 colon = tested on: HT29 colon
OVCAR-5 ovarian = tested on: OVCAR-5 ovarian
M19-MEL melanoma = tested on: M19-MEL melanoma
SNB-78 CNS = tested on: SNB-78 CNS
OVCAR-8 ovarian = tested on: OVCAR-8 ovarian
K-562 leukemia = tested on: K-562 leukemia
UACC-257 melanoma = tested on: UACC-257 melanoma
SNB-19 CNS = tested on: SNB-19 CNS
SF-539 CNS = tested on: SF-539 CNS
786-0 renal = tested on: 786-0 renal
DMS 114 small cell lung = tested on: DMS 114 small cell lung
HCT-15 colon = tested on: HCT-15 colon
NCI-H460 lung = tested on: NCI-H460 lung
RPMI-8226 leukemia = tested on: RPMI-8226 leukemia
EKVX NSCLC = tested on: EKVX NSCLC
MALME-3M melanoma = tested on: MALME-3M melanoma
A549 NSCLC = tested on: A549 NSCLC
HCC-2998 colon = tested on: HCC-2998 colon
ACHN renal = tested on: ACHN renal
CCRF-CEM leukemia = tested on: CCRF-CEM leukemia
MOLT-4 leukemia = tested on: MOLT-4 leukemia
OVCAR-4 ovarian = tested on: OVCAR-4 ovarian
NCI-H23 lung = tested on: NCI-H23 lung
COLO 205 colon = tested on: COLO 205 colon
SK-MEL-28 melanoma = tested on: SK-MEL-28 melanoma
IGROV1 ovarian = tested on: IGROV1 ovarian
HOP-92 NSCLC = tested on: HOP-92 NSCLC
CAKI-1 renal = tested on: CAKI-1 renal
SF-295 CNS = tested on: SF-295 CNS
RXF 393 renal = tested on: RXF 393 renal
HOP-18 NSCLC = tested on: HOP-18 NSCLC
A498 renal = tested on: A498 renal
SK-MEL-2 melanoma = tested on: SK-MEL-2 melanoma
NCI-H522 lung = tested on: NCI-H522 lung
KM12 colon = tested on: KM12 colon
SR leukemia = tested on: SR leukemia
DMS 273 small cell lung = tested on: DMS 273 small cell lung
HCT-116 colon = tested on: HCT-116 colon
LOX IMVI melanoma = tested on: LOX IMVI melanoma
SNB-75 CNS = tested on: SNB-75 CNS
HL-60(TB) leukemia = tested on: HL-60(TB) leukemia

`CC(C)N(C(=O)C12C3C4C1C1C4(C#N)C3C12C#N)C(C)C` (configuration not stated) was tested, and the TGI (UO-31 renal) was > 100 µM, the TGI (TK-10 renal) was > 100 µM and the TGI (SK-OV-3 ovarian) was > 100 µM. For the same compound, the TGI (HOP-62 NSCLC) was > 100 µM, the TGI (NCI-H226 lung) was > 100 µM and the TGI (RXF-631 renal) was > 100 µM. The TGI (SF-268 CNS) was > 100 µM, the TGI (SN12C renal) was > 100 µM and the TGI (XF 498 CNS) was > 100 µM. The TGI (SW-620 colon) was > 100 µM, the TGI (OVCAR-3 ovarian) was > 100 µM and the TGI (SK-MEL-5 melanoma) was > 100 µM. For the same compound, the TGI (KM20L2 colon) was > 100 µM, the TGI (U251 CNS) was > 100 µM and the TGI (LXFL 529 NSCLC) was > 100 µM. The TGI (M14 melanoma) was > 100 µM, the TGI (DLD-1 colon) was > 100 µM and the TGI (UACC-62 melanoma) was > 100 µM. For the same compound, the TGI (HT29 colon) was > 100 µM, the TGI (OVCAR-5 ovarian) was > 100 µM and the TGI (M19-MEL melanoma) was > 100 µM. For the same compound, the TGI (SNB-78 CNS) was > 100 µM, the TGI (OVCAR-8 ovarian) was > 100 µM and the TGI (K-562 leukemia) was > 100 µM. For the same compound, the TGI (UACC-257 melanoma) was > 100 µM, the TGI (SNB-19 CNS) was > 100 µM and the TGI (SF-539 CNS) was > 100 µM. For the same compound, the TGI (786-0 renal) was > 100 µM, the TGI (DMS 114 small cell lung) was > 100 µM and the TGI (HCT-15 colon) was > 100 µM. The TGI (NCI-H460 lung) was > 100 µM, the TGI (RPMI-8226 leukemia) was > 100 µM and the TGI (EKVX NSCLC) was > 100 µM. The TGI (MALME-3M melanoma) was > 100 µM, the TGI (A549 NSCLC) was > 100 µM and the TGI (HCC-2998 colon) was > 100 µM. For the same compound, the TGI (ACHN renal) was > 100 µM, the TGI (CCRF-CEM leukemia) was > 100 µM and the TGI (MOLT-4 leukemia) was > 100 µM. For the same compound, the TGI (OVCAR-4 ovarian) was > 100 µM, the TGI (NCI-H23 lung) was > 100 µM and the TGI (COLO 205 colon) was > 100 µM. The TGI (SK-MEL-28 melanoma) was > 100 µM, the TGI (IGROV1 ovarian) was > 100 µM and the TGI (HOP-92 NSCLC) was > 100 µM. The TGI (CAKI-1 renal) was > 100 µM, the TGI (SF-295 CNS) was > 100 µM and the TGI (RXF 393 renal) was > 100 µM. For the same compound, the TGI (HOP-18 NSCLC) was > 100 µM and the TGI (A498 renal) was > 100 µM.
`O=c1/c(=C/c2ccccc2[N+](=O)[O-])sc2nnc(-c3ccco3)n12` was tested, and the TGI (UO-31 renal) was 96.8 µM, the TGI (TK-10 renal) was > 100 µM and the TGI (SK-OV-3 ovarian) was > 100 µM. The TGI (HOP-62 NSCLC) was 39.2 µM, the TGI (NCI-H226 lung) was 61 µM and the TGI (SF-268 CNS) was 46.3 µM. For the same compound, the TGI (SK-MEL-2 melanoma) was 34.6 µM, the TGI (SN12C renal) was > 100 µM and the TGI (NCI-H522 lung) was 32.9 µM. It also gave a TGI (XF 498 CNS) of 34.5 µM, a TGI (SW-620 colon) of 46.8 µM and a TGI (OVCAR-3 ovarian) of 32.4 µM. For the same compound, the TGI (SK-MEL-5 melanoma) was 34.4 µM, the TGI (KM20L2 colon) was > 100 µM and the TGI (U251 CNS) was 36.6 µM. For the same compound, the TGI (LXFL 529 NSCLC) was 34.5 µM, the TGI (KM12 colon) was 33.4 µM and the TGI (M14 melanoma) was 33.3 µM. The TGI (DLD-1 colon) was 97.1 µM, the TGI (UACC-62 melanoma) was > 100 µM and the TGI (SR leukemia) was 70.9 µM. For the same compound, the TGI (HT29 colon) was > 100 µM, the TGI (OVCAR-5 ovarian) was > 100 µM and the TGI (M19-MEL melanoma) was 38.3 µM. The TGI (SNB-78 CNS) was 72.3 µM, the TGI (OVCAR-8 ovarian) was 32.5 µM and the TGI (K-562 leukemia) was > 100 µM. For the same compound, the TGI (UACC-257 melanoma) was > 100 µM, the TGI (SNB-19 CNS) was 56.3 µM and the TGI (DMS 273 small cell lung) was > 100 µM. For the same compound, the TGI (SF-539 CNS) was 33.9 µM, the TGI (786-0 renal) was > 100 µM and the TGI (DMS 114 small cell lung) was 40.4 µM. For the same compound, the TGI (HCT-15 colon) was 75.8 µM, the TGI (NCI-H460 lung) was 56.2 µM and the TGI (EKVX NSCLC) was > 100 µM. For the same compound, the TGI (MALME-3M melanoma) was 47.1 µM, the TGI (A549 NSCLC) was 60.3 µM and the TGI (HCT-116 colon) was 58.8 µM. For the same compound, the TGI (HCC-2998 colon) was 43.4 µM, the TGI (LOX IMVI melanoma) was 31.8 µM and the TGI (ACHN renal) was > 100 µM. It also gave a TGI (CCRF-CEM leukemia) of 49.8 µM, a TGI (MOLT-4 leukemia) of 62 µM and a TGI (SNB-75 CNS) of 84.7 µM. The TGI (OVCAR-4 ovarian) was 40 µM, the TGI (NCI-H23 lung) was 64 µM and the TGI (COLO 205 colon) was > 100 µM. For the same compound, the TGI (HL-60(TB) leukemia) was 58.4 µM, the TGI (SK-MEL-28 melanoma) was 57 µM and the TGI (IGROV1 ovarian) was 56.3 µM. The TGI (HOP-92 NSCLC) was > 100 µM, the TGI (CAKI-1 renal) was > 100 µM and the TGI (SF-295 CNS) was 55.5 µM. For the same compound, the TGI (RXF 393 renal) was 32.6 µM, the TGI (HOP-18 NSCLC) was 57.8 µM and the TGI (A498 renal) was > 100 µM.
